ChEMBL document CHEMBL1155570, “5'-Methoxyhydnocarpin-D and pheophorbide A: Berberis species components that potentiate berberine growth inhibition of resistant Staphylococcus aureus” (J Nat Prod, 2000)
Active and inactive are the calls of the source. The rule behind the calls is not given here.

Experiments:
Staphylococcus aureus [1] = assay: Antimicrobial activity against Staphylococcus aureus 4222 with norA KLE 820(3) mutation; type: functional, organism-based
Staphylococcus aureus [2] = assay: Antimicrobial activity against Staphylococcus aureus 4222 with norA KLE mutation at 120 to 140 ug/ml; type: functional, organism-based

Compound	Activity (Staphylococcus aureus [1])	Activity (Staphylococcus aureus [2])
COc1ccc(CC2c3cc(OC)c(OC)cc3CCN2C)cc1OC (stereo not given)	inactive	–
COc1ccc2c(c1O)-c1c(OC)c(OC)cc3c1[C@H](C2)N(C)CC3	inactive	–
CN1CCc2cc3c(cc2C(=O)Cc2cc4c(cc2C1)OCO4)OCO3	inactive	–
COc1cc2c(cc1OC)-c1c(OC)c(OC)cc3c1[C@H](C2)N(C)CC3	inactive	–
COc1ccc2c(c1OC)-c1c(OC)c(OC)cc3c1[C@H](C2)[N+](C)(C)CC3	inactive	–
COc1cc2c(cc1OC)[C@@H]1Cc3ccc(OC)c(OC)c3CN1CC2	inactive	–
COc1cc2c(cc1OC)C1Cc3cc(OC)c(OC)cc3[C@H](C2)N1C	inactive	–
COc1ccc2c(c1OC)CN(C)CCc1cc3c(cc1C(=O)C2)OCO3	inactive	–
COc1cc2c(cc1O)[C@@H]1Cc3cc(O)c(OC)cc3C(C2)N1C	inactive	–
COc1ccc2cc3[n+](cc2c1OC)CCc1cc2c(cc1-3)OCO2	–	Active
